Laboratory results as given in the supplement of paper PMC5580409.

test system: Plasmodium falciparum 3D7; assay: pEC50, asexual blood-stage growth inhibition; conditions: 72 h
Procedure: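 Held-out test set measured in the Guy lab in 2014 with the same procedure as the primary St. Jude screen. P. falciparum 3D7 blood-stage culture (2% hematocrit, 1% parasitemia) was treated with compound for 72 h at 37 °C, and growth was read by SYBR Green I fluorescence. EC50 came from a four-parameter Hill fit over a 10-point dilution series […].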

Question: For CC(=O)Nc1ccc(-c2nc3cc(-c4nc5cc(NC(C)=O)ccc5[nH]4)ccc3[nH]2)cc1, which pEC50 is on record?
Answer: The pEC50 was 6.5.

Question: How did the pEC50 turn out when COc1cc(C2CC(=O)NC3=C2C(=O)CC(c2ccc(F)cc2)C3)c(OC)cc1Br (stereo unspecified) was run?
Answer: Its pEC50 is under 4.82.

Question: For OC(CNc1ccccc1)Cn1c2ccc(Cl)cc2c2cc(Cl)ccc21 (stereo unspecified), which pEC50 is on record?
Answer: The pEC50 was 5.36.

Question: For Nc1ccc(-c2nc3cc(-c4nc5cc(N)ccc5[nH]4)ccc3[nH]2)cc1, which pEC50 is on record?
Answer: Its pEC50 is 5.64.

Question: Oc1ccc(Cl)cc1CN1CCCC(N2CCCC2)C1 (stereo unspecified) was tested. Which pEC50 did it give?
Answer: The pEC50 was under 4.82.

Question: How did the pEC50 turn out when OC(CNc1ccc(Cl)cc1)Cn1c2ccc(Cl)cc2c2cc(Cl)ccc21 (stereo unspecified) was run?
Answer: The pEC50 was under 4.82.

Question: For COc1ccc(OC)c(C2CC(=O)C3=C(C2)NC(=O)CC3c2ccc(Cl)cc2Cl)c1 (stereo unspecified), which pEC50 is on record?
Answer: The pEC50 was under 4.82.

Question: Cc1ccc(NCC(O)Cn2c3ccccc3c3ccccc32)cc1 (stereo unspecified) was tested. Which pEC50 did it give?
Answer: Its pEC50 is under 4.82.

Question: With Cc1onc(-c2c(Cl)cccc2Cl)c1C(=O)Nc1cc(Cl)ccc1Cl as the compound, how does the pEC50 read?
Answer: Its pEC50 is 6.54.

Question: How did the pEC50 turn out when OC(CNC1CCCCC1)Cn1c2ccccc2c2ccccc21 (stereo unspecified) was run?
Answer: Its pEC50 is 5.33.

Question: How did the pEC50 turn out when COc1ccc(C2CC(=O)NC3=C2C(=O)CC(c2ccccc2)C3)cc1OC (stereo unspecified) was run?
Answer: Its pEC50 is 5.34.

Question: How did the pEC50 turn out when N=c1n(CCN2CCCCC2)c2ccccc2n1CC(O)c1cccc(Br)c1 (stereo unspecified) was run?
Answer: The pEC50 was 5.73.

Question: O=C(Nc1ccc(-c2nc3cc(-c4nc5cc(NC(=O)c6cccc7ccccc67)ccc5[nH]4)ccc3[nH]2)cc1)c1cccc2ccccc12 was tested. Which pEC50 did it give?
Answer: The pEC50 was under 4.82.

Question: For N=c1n(CCN2CCCCC2)c2ccccc2n1CC(O)COc1ccc(Cl)cc1Cl (stereo unspecified), which pEC50 is on record?
Answer: The pEC50 was 5.53.

Question: How did the pEC50 turn out when Nc1cccc(-c2nc3cc(Oc4ccc5[nH]c(-c6cccc(N)c6)nc5c4)ccc3[nH]2)c1 was run?
Answer: Its pEC50 is under 4.82.

Question: Which pEC50 does the source give for COc1cccc(-c2cc(C(=O)N3CCN(Cc4ccccc4)CC3)c3ccccc3n2)c1 here?
Answer: The pEC50 was under 4.82.

Question: With COc1ccc(CCNC(=O)c2cn(C3CCCCC3)cc(C(=O)NC(C)(C)C)c2=O)cc1 as the compound, how does the pEC50 read?
Answer: The pEC50 was 6.95.

Question: With CC(C)c1ccc(/C=C/C(=O)Nc2ccc(C(C)C)cc2)cc1 as the compound, how does the pEC50 read?
Answer: The pEC50 was under 4.82.

Question: OC(CNCc1ccc(-c2ccccc2)cc1)c1ccccc1 (stereo unspecified) was tested. Which pEC50 did it give?
Answer: The pEC50 was under 4.82.

Question: For COc1cc(OC)cc(C(=O)Nc2ccc(-c3nc4cc(C)ccc4[nH]3)cc2)c1, which pEC50 is on record?
Answer: Its pEC50 is 5.29.

Question: OC(CNc1ccccc1)Cn1c2ccccc2c2ccccc21 (stereo unspecified) was tested. Which pEC50 did it give?
Answer: The pEC50 was under 4.82.

Question: How did the pEC50 turn out when COc1ccc(CCN2C(=O)N(c3cccc(Cl)c3)C(=O)C2CC(=O)Nc2ccc(F)cc2)cc1 (stereo unspecified) was run?
Answer: Its pEC50 is under 4.82.

Question: Which pEC50 does the source give for CCN(CC)c1nc(Nc2ccc(O)cc2)nc(Nc2cc(C)ccc2C)n1 here?
Answer: Its pEC50 is under 4.82.

Question: With Cc1ccc(NCC(O)Cn2c3ccc(Cl)cc3c3cc(Cl)ccc32)cc1 (stereo unspecified) as the compound, how does the pEC50 read?
Answer: The pEC50 was 5.28.

Question: Cc1ccc2c(c1)c1c3n2CCCN(Cc2ccccc2F)C3CCC1 (stereo unspecified) was tested. Which pEC50 did it give?
Answer: The pEC50 was 5.01.

Question: With CCn1ncc(Cl)c1C(=O)Nc1ccc(C)c([N+](=O)[O-])c1 as the compound, how does the pEC50 read?
Answer: The pEC50 was under 4.82.

Question: Cc1ccc2c(c1)c1c3n2CCCN=C3CCC1 was tested. Which pEC50 did it give?
Answer: The pEC50 was under 4.82.

Question: How did the pEC50 turn out when O=C(NC1C2CC3CC(C2)CC1C3)c1ccc2c(=O)n3c(nc2c1)CCCCC3 (stereo unspecified) was run?
Answer: The pEC50 was under 4.82.

Question: For OC(CNc1cccc2ccccc12)Cn1c2ccc(Cl)cc2c2cc(Cl)ccc21 (stereo unspecified), which pEC50 is on record?
Answer: The pEC50 was 5.36.

Question: How did the pEC50 turn out when Cc1ccccc1Cn1c(=N)n(CC(O)c2ccc(Cl)c(Cl)c2)c2ccccc21 (stereo unspecified) was run?
Answer: The pEC50 was 6.39.

Question: For COCCNCC(O)Cn1c2ccc(Cl)cc2c2cc(Cl)ccc21 (stereo unspecified), which pEC50 is on record?
Answer: Its pEC50 is 5.63.

Question: For CC1=C(C(=O)OCCOc2ccccc2)C(c2ccc(F)cc2)C2=C(CC(c3ccccc3)CC2=O)N1 (stereo unspecified), which pEC50 is on record?
Answer: Its pEC50 is under 4.82.

Question: How did the pEC50 turn out when CCOC(=O)C1=C(C)NC2=C(C(=O)CC(c3ccc(OC)cc3)C2)C1c1cc(Br)c(O)c(OC)c1 (stereo unspecified) was run?
Answer: The pEC50 was 5.3.

Question: With O=C(Cc1ccc(Br)cc1)Nc1cccc(-c2nc3ccccc3[nH]2)c1 as the compound, how does the pEC50 read?
Answer: Its pEC50 is under 4.82.

Question: Which pEC50 does the source give for O=C(Nc1ccncc1)C1CC1c1ccccc1 (stereo unspecified) here?
Answer: The pEC50 was under 4.82.

Question: With CC(CN1CCCCC1)NC(=O)c1cc(-c2cccnc2)nc2ccc(Cl)cc12 (stereo unspecified) as the compound, how does the pEC50 read?
Answer: Its pEC50 is 5.7.

Question: With O=C(NC1CCCCC1)c1cn(C2CC2)cc(C(=O)NC2CCN(Cc3ccccc3)CC2)c1=O as the compound, how does the pEC50 read?
Answer: The pEC50 was under 4.82.

Question: CC[n+]1c(/C=C/c2cc(C)n(-c3ccccc3)c2C)sc2ccccc21 was tested. Which pEC50 did it give?
Answer: Its pEC50 is under 4.82.

Question: For CCOC(=O)C1=C(C)NC2=C(C(=O)CC(c3ccc(Cl)cc3)C2)C1c1cc(OC)c(OC)c(OC)c1 (stereo unspecified), which pEC50 is on record?
Answer: The pEC50 was under 4.82.

Question: Which pEC50 does the source give for O=C1CC(c2ccc(Cl)c([N+](=O)[O-])c2)C2=C(CC(c3cccs3)CC2=O)N1 (stereo unspecified) here?
Answer: The pEC50 was under 4.82.

Question: With CC(=O)Nc1cccc(Nc2nc(N3CCCCC3)nc(N(c3ccccc3)c3ccccc3)n2)c1 as the compound, how does the pEC50 read?
Answer: Its pEC50 is 5.61.

Question: Which pEC50 does the source give for OC(CN1CCCCCC1)Cn1c2ccccc2c2ccccc21 (stereo unspecified) here?
Answer: The pEC50 was under 4.82.

Question: CCOC(=O)C1=C(C)NC2=C(C(=O)CC(c3ccco3)C2)C1c1ccc(OC)c(OC)c1 (stereo unspecified) was tested. Which pEC50 did it give?
Answer: The pEC50 was under 4.82.

Question: For Cc1ccc(OCC(O)CNC2CCCCC2)cc1 (stereo unspecified), which pEC50 is on record?
Answer: The pEC50 was 5.83.

Question: With CC(C)c1ccc(/C=C/C(=O)Nc2cccc(Cl)c2)cc1 as the compound, how does the pEC50 read?
Answer: The pEC50 was under 4.82.

Question: For COc1ccccc1-c1c(C(F)(F)F)oc2c(CN(C)C3CCCCC3)c(O)ccc2c1=O, which pEC50 is on record?
Answer: The pEC50 was under 4.82.

Question: Which pEC50 does the source give for CC(C)(C)NC(=O)c1cn(C2CCCCC2)cc(C(=O)N2CCC(c3ccccc3)CC2)c1=O here?
Answer: The pEC50 was under 4.82.

Question: Cc1cccc(Oc2c(C(F)(F)F)oc3c(CN4CCN(C)CC4)c(O)ccc3c2=O)c1 was tested. Which pEC50 did it give?
Answer: Its pEC50 is 5.27.

Question: Which pEC50 does the source give for COc1ccc(OC)c(C2CC(=O)C3=C(C2)NC(=O)CC3c2cccc(Cl)c2Cl)c1 (stereo unspecified) here?
Answer: Its pEC50 is 5.61.

Question: How did the pEC50 turn out when Cc1nn(C)c(C(=O)NNC(=O)Nc2ccc([N+](=O)[O-])cc2)c1Cl was run?
Answer: Its pEC50 is 6.93.

Question: For Oc1ccc(Br)cc1CN1CCN(Cc2cccc3ccccc23)CC1, which pEC50 is on record?
Answer: The pEC50 was 6.3.
